The compounds below were run against human Nav1.7 (Homo sapiens (Human), UniProt Q15858) (assay: FLIPR or FLIPR TETRA sodium dye assay with KCl and test article pre-incubation). Conditions: read-out: Nav1.7 IC50 (μM) ± SEM.
Chain of human Nav1.7 (Q15858 other isoform, or with tags, fused parts or gaps): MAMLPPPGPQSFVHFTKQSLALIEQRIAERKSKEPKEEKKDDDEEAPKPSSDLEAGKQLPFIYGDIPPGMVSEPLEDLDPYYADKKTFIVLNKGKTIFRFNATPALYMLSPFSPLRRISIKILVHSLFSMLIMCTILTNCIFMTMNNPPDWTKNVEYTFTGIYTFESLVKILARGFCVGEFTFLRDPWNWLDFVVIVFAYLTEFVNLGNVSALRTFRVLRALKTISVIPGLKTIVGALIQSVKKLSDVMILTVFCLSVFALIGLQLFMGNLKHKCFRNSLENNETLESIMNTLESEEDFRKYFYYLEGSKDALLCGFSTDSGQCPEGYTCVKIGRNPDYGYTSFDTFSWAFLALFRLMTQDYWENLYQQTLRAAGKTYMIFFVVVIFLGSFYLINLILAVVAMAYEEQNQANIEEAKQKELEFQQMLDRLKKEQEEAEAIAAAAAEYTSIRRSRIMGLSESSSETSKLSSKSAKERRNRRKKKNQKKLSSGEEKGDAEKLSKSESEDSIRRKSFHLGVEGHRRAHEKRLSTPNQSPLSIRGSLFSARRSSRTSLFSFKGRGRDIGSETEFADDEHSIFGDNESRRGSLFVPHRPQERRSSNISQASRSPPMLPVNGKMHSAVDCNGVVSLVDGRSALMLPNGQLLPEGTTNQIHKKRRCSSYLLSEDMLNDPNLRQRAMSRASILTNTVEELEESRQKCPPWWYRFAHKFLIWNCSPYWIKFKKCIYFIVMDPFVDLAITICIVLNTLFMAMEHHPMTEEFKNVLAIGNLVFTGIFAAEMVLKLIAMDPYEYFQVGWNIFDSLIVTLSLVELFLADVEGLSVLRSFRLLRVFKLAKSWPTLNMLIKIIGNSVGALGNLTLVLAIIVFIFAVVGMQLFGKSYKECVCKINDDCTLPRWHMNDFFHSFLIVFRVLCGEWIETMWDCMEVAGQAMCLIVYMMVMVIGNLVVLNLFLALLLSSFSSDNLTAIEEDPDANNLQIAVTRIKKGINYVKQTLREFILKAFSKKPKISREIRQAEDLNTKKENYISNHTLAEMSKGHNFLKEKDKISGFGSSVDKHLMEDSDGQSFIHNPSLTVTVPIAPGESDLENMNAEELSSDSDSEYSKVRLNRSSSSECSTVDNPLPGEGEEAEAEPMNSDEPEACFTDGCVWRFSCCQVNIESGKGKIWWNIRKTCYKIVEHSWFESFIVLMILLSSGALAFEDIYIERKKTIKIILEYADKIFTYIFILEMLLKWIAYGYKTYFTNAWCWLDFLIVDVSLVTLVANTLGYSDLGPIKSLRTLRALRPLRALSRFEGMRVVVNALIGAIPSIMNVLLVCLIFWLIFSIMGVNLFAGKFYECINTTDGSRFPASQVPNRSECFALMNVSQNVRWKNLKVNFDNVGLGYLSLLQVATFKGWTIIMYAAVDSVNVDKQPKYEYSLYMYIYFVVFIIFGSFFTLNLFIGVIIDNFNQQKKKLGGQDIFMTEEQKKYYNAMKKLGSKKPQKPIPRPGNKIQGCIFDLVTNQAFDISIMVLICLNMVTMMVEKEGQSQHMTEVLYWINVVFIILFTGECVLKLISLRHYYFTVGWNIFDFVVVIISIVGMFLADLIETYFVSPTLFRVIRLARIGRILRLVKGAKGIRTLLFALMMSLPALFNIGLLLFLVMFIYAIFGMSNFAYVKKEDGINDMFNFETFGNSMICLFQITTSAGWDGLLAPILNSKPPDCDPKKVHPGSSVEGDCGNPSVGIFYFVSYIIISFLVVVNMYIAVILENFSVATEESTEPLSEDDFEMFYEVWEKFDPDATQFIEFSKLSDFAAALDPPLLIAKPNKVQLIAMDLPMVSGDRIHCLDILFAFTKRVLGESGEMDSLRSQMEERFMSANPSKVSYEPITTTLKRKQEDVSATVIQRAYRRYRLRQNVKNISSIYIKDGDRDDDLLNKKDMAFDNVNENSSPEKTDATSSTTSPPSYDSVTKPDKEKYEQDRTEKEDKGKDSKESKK
Assay type: cell-based
With OCC(O)c1cccc(-c2ccc(Oc3ccc(C(F)(F)F)cc3)cc2)n1 (centres unmarked) [compound 3, 1-(6-(4-(4-(trifluoromethyl)phenoxy)phenyl)pyridin-2-yl)ethane-1,2-diol] the IC50 was 0.07 ± 0.01 µM.
OC[C@@H](O)c1cccc(-c2ccc(Oc3ccc(C(F)(F)F)cc3)cc2)n1 [compound 4, (S)-1-(6-(4-(4-(trifluoromethyl)phenoxy)phenyl)pyridin-2-yl)ethane-1,2-diol] showed an IC50 of 0.12 ± 0.02 µM.
N#Cc1ccc(Oc2ccc(-c3cccc([C@H](O)CO)n3)cc2)cc1 [compound 6, (S)-4-(4-(6-(1,2-dihydroxyethyl)pyridin-2-yl)phenoxy)benzonitrile] was tested, and the IC50 was 0.27 ± 0.05 µM.
N#Cc1ccc(Oc2ccc(-c3cccc(C(O)CO)n3)cc2)cc1 (centres unmarked) [compound 8, 4-(4-(6-(1,2-dihydroxyethyl)pyridin-2-yl)phenoxy) benzonitrile] gave an IC50 of 0.47 ± 0.09 µM.
For N#Cc1ccc(Oc2ccc(-c3cccc(C(O)CO)n3)cc2)c(C(F)(F)F)c1 (centres unmarked) [compound 9, 4-(4-(6-(1,2-dihydroxyethyl)pyridin-2-yl)phenoxy)-3-(trifluoromethyl) benzonitrile], the IC50 was 0.5 ± 0.18 µM.
N#Cc1ccc(Oc2ccc(-c3cccc([C@@H](O)CO)n3)cc2)c(C(F)(F)F)c1 [compound 11, (R)-4-(4-(6-(1,2-dihydroxyethyl)pyridin-2-yl)phenoxy)-3-(trifluoromethyl) benzonitrile] gave an IC50 of 0.82 ± 0.09 µM.
In the case of N#Cc1cc(Oc2ccc(-c3cccc(C(O)CO)n3)cc2)ccc1C(F)(F)F (centres unmarked) [compound 12, 5-(4-(6-(1,2-dihydroxyethyl)pyridin-2-yl)phenoxy)-2-(trifluoromethyl) benzonitrile], the IC50 is reported as 0.89 ± 0.02 µM.
For N#Cc1ccc(Oc2ccc(-c3cccc([C@@H](O)CO)n3)cc2)cc1 [compound 13, (R)-4-(4-(6-(1,2-dihydroxyethyl)pyridin-2-yl)phenoxy) benzonitrile], the IC50 was 0.89 ± 0.08 µM.
N#Cc1cc(Oc2ccc(-c3cccc([C@@H](O)CO)n3)cc2)ccc1C(F)(F)F [compound 14, (R)-5-(4-(6-(1,2-dihydroxyethyl)pyridin-2-yl)phenoxy)-2-(trifluoromethyl) benzonitrile] gave an IC50 of 1.3 ± 0.3 µM.
In the case of N#Cc1ccc(Oc2ccc(-c3cccc([C@H](O)CO)n3)cc2)c(C(F)(F)F)c1 [compound 22, (S)-4-(4-(6-(1,2-dihydroxyethyl)pyridin-2-yl)phenoxy)-3-(trifluoromethyl) benzonitrile], the IC50 is reported as 3.33 ± 0.2 µM.
Compound N#Cc1ccc(Oc2ccc(-c3cc([C@H](O)CO)cc(C(N)=O)n3)cc2)cc1C(F)(F)F [compound 31, (S)-6-(4-(4-cyano-3-(trifluoromethyl)phenoxy)phenyl)-4-(1,2-dihydroxyethyl) picolinamide] has an IC50 of 0.61 ± 0.1 µM.
N#Cc1ccc(Oc2ccc(-c3cc([C@H](O)CO)cc(C(N)=O)n3)cc2)c(C(F)(F)F)c1 [compound 35, (S)-6-(4-(4-cyano-2-(trifluoromethyl)phenoxy)phenyl)-4-(1,2-dihydroxyethyl) picolinamide] was tested, and the IC50 was 0.4 ± 0.07 µM.
In the case of N#Cc1ccc(Oc2ccc(-c3cc([C@@H](O)CO)cc(C(N)=O)n3)cc2)c(C(F)(F)F)c1 [compound 36, (R)-6-(4-(4-cyano-2-(trifluoromethyl)phenoxy)phenyl)-4-(1,2-dihydroxyethyl) picolinamide], the IC50 is reported as 0.22 ± 0.04 µM.

Same assay, conditions: recombinant human Nav1.7 in HEK293 cells; CoroNa Green sodium dye; veratridine + scorpion venom; read-out: Nav1.7 IC50 (μM) ± SEM
In the case of CC(C)NC(=O)N1CCN(c2cc(-c3ccc(Oc4ccc(F)cc4)cc3)nc([C@@H](O)CO)c2)CC1 [compound 7, (R)-4-(2-(1,2-dihydroxyethyl)-6-(4-(4-fluorophenoxy)phenyl)pyridin-4-yl)-N-isopropyl piperazine-1-carboxamide], the IC50 is reported as 0.32 ± 0.02 µM.
N#Cc1cc(C(F)(F)F)ccc1Oc1ccc(-c2cccc(C(O)CO)n2)cc1 (centres unmarked) [compound 10, 2-(4-(6-(1,2-dihydroxyethyl)pyridin-2-yl)phenoxy)-5-(trifluoromethyl) benzonitrile] showed an IC50 of 0.52 ± 0.11 µM.
In the case of OCC(O)c1cccc(-c2ccc(Oc3ncc(C(F)(F)F)cc3Cl)cc2)n1 (centres unmarked) [compound 15, 1-(6-(4-((3-chloro-5-(trifluoromethyl)pyridin-2-yl)oxy)phenyl)pyridin-2-yl) ethane-1,2-diol], the IC50 is reported as 1.42 ± 0.24 µM.
Work on OCC(O)c1cccc(-c2ccc(Oc3ccc(C(F)(F)F)cn3)cc2)n1 (centres unmarked) [compound 16, 1-(6-(4-((5-(trifluoromethyl)pyridin-2-yl)oxy)phenyl)pyridin-2-yl) ethane-1,2-diol] yielded an IC50 of 1.71 ± 0.24 µM.
With Cc1ccc(Oc2ccc(-c3cccc(C(O)CO)n3)cc2)cn1 (centres unmarked) [compound 17, 1-(6-(4-((6-methylpyridin-3-yl)oxy)phenyl)pyridin-2-yl)ethane-1,2-diol] the IC50 was 2.77 ± 0.41 µM.
With CC(=O)c1ccc(Oc2ccc(-c3cccc(C(O)CO)n3)cc2)c(C(F)(F)F)c1 (centres unmarked) [compound 20, 1-(4-(4-(6-(1,2-dihydroxyethyl)pyridin-2-yl)phenoxy)-3-(trifluoromethyl)phenyl)ethanone] the IC50 was 2.95 ± 0.76 µM.
In the case of OC[C@H](O)c1cc(N2CCNCC2)cc(-c2ccc(Oc3ccc(F)cc3)cc2)n1 [compound 21, (R)-1-(6-(4-(4-fluorophenoxy)phenyl)-4-(piperazin-1-yl)pyridin-2-yl)ethane-1,2-diol], the IC50 is reported as 2.97 ± 0.91 µM.
In the case of OC[C@H](O)c1cccc(-c2ccc(Oc3ccc(C(F)(F)F)cn3)cc2)n1 [compound 23, (R)-1-(6-(4-((5-(trifluoromethyl)pyridin-2-yl)oxy)phenyl)pyridin-2-yl)ethane-1,2-diol], the IC50 is reported as 4.89 ± 2.48 µM.
Compound OC[C@@H](O)c1cccc(-c2ccc(Oc3ccc(C(F)(F)F)cn3)cc2)n1 [compound 24, (S)-1-(6-(4-((5-(trifluoromethyl)pyridin-2-yl)oxy)phenyl)pyridin-2-yl)ethane-1,2-diol] has an IC50 of 6.49 ± 2.94 µM.
Cc1ccc(Oc2ccc(-c3cccc(C(O)CO)n3)cc2)cn1 (centres unmarked) [compound 27, 1-(6-(4-((6-methylpyridin-3-yl)oxy)phenyl)pyridin-2-yl)ethane-1,2-diol] was tested, and the IC50 was over 20 µM.
For OCC(O)c1cccc(-c2ccc(Oc3ncccc3C(F)(F)F)cc2)n1 (centres unmarked) [compound 29, 1-(6-(4-((3-(trifluoromethyl)pyridin-2-yl)oxy)phenyl)pyridin-2-yl) ethane-1,2-diol], the IC50 was 2.65 ± 0.37 µM.
NC(=O)c1ccc(Oc2ccc(-c3cc([C@H](O)CO)cc(C(N)=O)n3)cc2)c(C(F)(F)F)c1 [compound 32, (S)-6-(4-(4-carbamoyl-2-(trifluoromethyl)phenoxy)phenyl)-4-(1,2-dihydroxyethyl) picolinamide] gave an IC50 of over 20 µM.
Compound N#Cc1cc(Oc2ccc(-c3cc([C@H](O)CO)cc(C(N)=O)n3)cc2)ccc1C(F)(F)F [compound 33, (S)-6-(4-(3-cyano-4-(trifluoromethyl)phenoxy)phenyl)-4-(1,2-dihydroxyethyl) picolinamide] has an IC50 of 0.5 ± 0.07 µM.
Work on N#Cc1cc(Oc2ccc(-c3cc([C@@H](O)CO)cc(C(N)=O)n3)cc2)ccc1C(F)(F)F [compound 34, (R)-6-(4-(3-cyano-4-(trifluoromethyl)phenoxy)phenyl)-4-(1,2-dihydroxyethyl) picolinamide] yielded an IC50 of 0.38 ± 0.08 µM.
Work on N#Cc1ccc(Oc2ccc(-c3cc([C@H](O)CO)cc(C(N)=O)n3)cc2)cc1 [compound 37, (S)-6-(4-(4-cyanophenoxy)phenyl)-4-(1,2-dihydroxyethyl) picolinamide] yielded an IC50 of 0.44 ± 0.1 µM.
N#Cc1ccc(Oc2ccc(-c3cc([C@@H](O)CO)cc(C(N)=O)n3)cc2)cc1 [compound 38, (R)-6-(4-(4-cyanophenoxy)phenyl)-4-(1,2-dihydroxyethyl) picolinamide] was tested, and the IC50 was 0.35 ± 0.07 µM.

Source: patent publication US9056832B2, “Pyridine compounds and the users thereof” (Purdue Pharma L.P., priority 2010, dated 2015)
